Experimental data: patent publication US11000033B2, “Ketone or oxime compound, and herbicide” (NISSAN CHEMICAL CORPORATION, priority 2014, dated 2021)

How the values were obtained:
Type in all cases: in vivo
[1] = test system: Abutilon theophrasti; assay: Test Example 5: herbicidal effect by foliage application, plastic box (symbol M); settings: 320 g/ha, 3 weeks after application
Procedure, shortened: (§1)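 Post-emergence spray; diluvial soil (sterilized), ~1.5 cm seed cover; greenhouse 25–30° C; 14-day-old plants; water-diluted emulsion at predetermined dose; visual score at 3 wk post-treatment.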

[2] = test system: Abutilon theophrasti; assay: Test Example 4: herbicidal effect by soil treatment (symbol M); settings: application herbicide amount 320 g/ha
Procedure, shortened: (§2)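 Seeds were sown in sterilized diluvial soil, covered with about 1.5 cm of soil, and the soil surface was sprayed with a water-diluted emulsion of the compound at a predetermined rate. Plants grew in a greenhouse at 25° C. to 30° C.; effects were scored visually 3 weeks after application.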

[3] = test system: corn; assay: Test Example 4: effect on crop by soil treatment (symbol c); settings: application herbicide amount 320 g/ha
Procedure, shortened: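 Sterilized diluvial soil, spot sowing, ~1.5 cm soil cover; greenhouse 25–30° C.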

[4] = test system: Digitaria ciliaris; assay: Test Example 4: herbicidal effect by soil treatment (symbol F); settings: application herbicide amount 320 g/ha
Procedure, shortened: as §2

[5] = test system: Leptochloa chinensis; assay: Test Example 3: herbicidal effect by foliage application, Wagner pot (symbol D); settings: application herbicide amount 320 g/ha
Procedure, shortened: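 Foliar spray of water-diluted emulsion formulation at a predetermined herbicide amount onto 14-day-old plants in flooded alluvial soil (water depth 0.1–0.5 cm), greenhouse 25–30 °C; rice sown alongside. Scored 3 wk post-application on set criteria.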

[6] = test system: Scirpus juncoides; assay: Test Example 2: herbicidal activity, application during weed generation in submerged conditions (symbol B); settings: Table 23; application herbicide amount 320 g/ha; grade 0-5 by criteria of Test Example 1
Procedure, shortened: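 Paddy pot test, submerged (4 cm water), alluvial soil, mixed sowing; greenhouse 25–30° C. Emulsion formulation diluted to predetermined rate, applied onto floodwater at 1–2 leaf stage. Visual herbicidal rating at 3 wk post-treatment.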

[7] = test system: Lolium multiflorum Lam.; assay: Test Example 5: herbicidal effect by foliage application, plastic box (symbol K); settings: 320 g/ha, 3 weeks after application
Procedure, shortened: as §1

[8] = test system: wheat; assay: Test Example 5: effect on crop by foliage application, plastic box (symbol e); settings: 320 g/ha, 3 weeks after application
Procedure, shortened: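 Sterilized diluvial soil, plastic box (21 × 13 × 7 cm); spot sowing, ~1.5 cm soil cover; greenhouse 25–30° C.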

[9] = test system: Avena fatua; assay: Test Example 4: herbicidal effect by soil treatment (symbol I); settings: application herbicide amount 320 g/ha
Procedure, shortened: as §2

[10] = test system: Avena fatua; assay: Test Example 5: herbicidal effect by foliage application, plastic box (symbol I); settings: 320 g/ha, 3 weeks after application
Procedure, shortened: as §1

[11] = test system: beet; assay: Test Example 4: effect on crop by soil treatment (symbol f); settings: application herbicide amount 320 g/ha
Procedure, shortened: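 Crop seed is sown in spots together with several weed species in a box of sterilized diluvial soil. It is covered by about 1.5 cm of soil and kept in a greenhouse held between 25° C. and 30° C.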

[12] = test system: directly sowed rice plant; assay: Test Example 3: effect on crop by foliage application, Wagner pot (symbol b); settings: application herbicide amount 320 g/ha
Procedure, shortened: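 Wagner pot (1/10000 are), alluvial soil, submerged 0.1–0.5 cm; sown E. crus-galli var. crus-galli, L. chinensis, C. difformis, rice; greenhouse 25–30 °C.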

SMILES	M: Abutilon theophrasti, herbicidal effect grade [1]	M (Abutilon theophrasti) herbicidal effect grade [2]	c (corn) effect on crop grade [3]	F (Digitaria ciliaris) herbicidal effect grade [4]	herbicidal effect on D (Leptochloa chinensis), grade 0-5 [5]	Herbicidal effect grade, B: Scirpus juncoides [6]	K: Lolium multiflorum Lam., herbicidal effect grade [7]	e: wheat, effect on crop grade [8]	I (Avena fatua) herbicidal effect grade [9]	I: Avena fatua, herbicidal effect grade [10]	f (beet) effect on crop grade [11]	effect on crop b (directly sowed rice plant), grade 0-5 [12]	M: Abutilon theophrasti, herbicidal effect (criteria 0-5) [1]	K: Lolium multiflorum Lam., herbicidal effect (criteria 0-5) [7]	e: wheat, effect on crop (criteria 0-5) [8]	I: Avena fatua, herbicidal effect (criteria 0-5) [10]
CON=C(C)CC1CC(OC(=O)C2(C)CC2(Cl)Cl)=C(c2c(C)cc(C)cc2C)C1=O (stereo not shown) [1-036]	4 (Herbicidal ratio of 70% or higher and lower than 90%)	5 (Herbicidal ratio of 90% or more (almost completely withered))	3 (Herbicidal ratio of 40% or higher and lower than 70%)	5 (Herbicidal ratio of 90% or more (almost completely withered))	5 (Herbicidal ratio of 90% or more (almost completely withered))	4 (Herbicidal ratio of 70% or higher and lower than 90%)	5 (Herbicidal ratio of 90% or more (almost completely withered))	5 (Herbicidal ratio of 90% or more (almost completely withered))	5 (Herbicidal ratio of 90% or more (almost completely withered))	5 (Herbicidal ratio of 90% or more (almost completely withered))	3 (Herbicidal ratio of 40% or higher and lower than 70%)	5 (Herbicidal ratio of 90% or more (almost completely withered))				
CON=C(C)CC1CC(OC(=O)CCC2CCCCC2)=C(c2c(C)cc(C)cc2C)C1=O (stereo not shown) [1-035]	4 (Herbicidal ratio of 70% or higher and lower than 90%)	5 (Herbicidal ratio of 90% or more (almost completely withered))	4 (Herbicidal ratio of 70% or higher and lower than 90%)	5 (Herbicidal ratio of 90% or more (almost completely withered))	5 (Herbicidal ratio of 90% or more (almost completely withered))	4 (Herbicidal ratio of 70% or higher and lower than 90%)	5 (Herbicidal ratio of 90% or more (almost completely withered))	5 (Herbicidal ratio of 90% or more (almost completely withered))	4 (Herbicidal ratio of 70% or higher and lower than 90%)	5 (Herbicidal ratio of 90% or more (almost completely withered))	3 (Herbicidal ratio of 40% or higher and lower than 70%)	5 (Herbicidal ratio of 90% or more (almost completely withered))				
CON=C(C)CC1CC(OC(=O)COc2ccc(F)cc2)=C(c2c(C)cc(C)cc2C)C1=O (stereo not shown) [1-073]		5 (Herbicidal ratio of 90% or more (almost completely withered))	4 (Herbicidal ratio of 70% or higher and lower than 90%)	5 (Herbicidal ratio of 90% or more (almost completely withered))	5 (Herbicidal ratio of 90% or more (almost completely withered))	5 (Herbicidal ratio of 90% or more (almost completely withered))			4 (Herbicidal ratio of 70% or higher and lower than 90%)			5 (Herbicidal ratio of 90% or more (almost completely withered))	4 (Herbicidal ratio of 70% or higher and lower than 90%)	5 (Herbicidal ratio of 90% or more (almost completely withered))	5 (Herbicidal ratio of 90% or more (almost completely withered))	5 (Herbicidal ratio of 90% or more (almost completely withered))
CON=C(CC1CC(OC(=O)COc2ccccc2)=C(c2c(C)cc(C)cc2C)C1=O)C1CC1 (stereo not shown) [1-063]	2 (Herbicidal ratio of 20% or higher and lower than 40%)	2 (Herbicidal ratio of 20% or higher and lower than 40%)	4 (Herbicidal ratio of 70% or higher and lower than 90%)	5 (Herbicidal ratio of 90% or more (almost completely withered))	5 (Herbicidal ratio of 90% or more (almost completely withered))	2 (Herbicidal ratio of 20% or higher and lower than 40%)	5 (Herbicidal ratio of 90% or more (almost completely withered))	4 (Herbicidal ratio of 70% or higher and lower than 90%)	3 (Herbicidal ratio of 40% or higher and lower than 70%)	5 (Herbicidal ratio of 90% or more (almost completely withered))		5 (Herbicidal ratio of 90% or more (almost completely withered))				
CON=C(C)CC1CC(OC(=O)COc2ccc(Cl)cc2)=C(c2c(C)cc(C)cc2C)C1=O (stereo not shown) [1-044]	4 (Herbicidal ratio of 70% or higher and lower than 90%)	5 (Herbicidal ratio of 90% or more (almost completely withered))	4 (Herbicidal ratio of 70% or higher and lower than 90%)	5 (Herbicidal ratio of 90% or more (almost completely withered))	5 (Herbicidal ratio of 90% or more (almost completely withered))	4 (Herbicidal ratio of 70% or higher and lower than 90%)	5 (Herbicidal ratio of 90% or more (almost completely withered))	5 (Herbicidal ratio of 90% or more (almost completely withered))	2 (Herbicidal ratio of 20% or higher and lower than 40%)	5 (Herbicidal ratio of 90% or more (almost completely withered))		5 (Herbicidal ratio of 90% or more (almost completely withered))				
CON=CC(C)(C)C1CC(O)=C(c2c(C)cc(C)cc2C)C1=O (stereo not shown) [1-030]	0 (Herbicidal ratio of 5% or lower (almost no effect))	0 (Herbicidal ratio of 5% or lower (almost no effect))	0 (Herbicidal ratio of 5% or lower (almost no effect))	3 (Herbicidal ratio of 40% or higher and lower than 70%)	5 (Herbicidal ratio of 90% or more (almost completely withered))	0 (Herbicidal ratio of 5% or lower (almost no effect))	5 (Herbicidal ratio of 90% or more (almost completely withered))	0 (Herbicidal ratio of 5% or lower (almost no effect))	0 (Herbicidal ratio of 5% or lower (almost no effect))	3 (Herbicidal ratio of 40% or higher and lower than 70%)		5 (Herbicidal ratio of 90% or more (almost completely withered))				
CC(CC1CC(O)=C(c2c(C)cc(C)cc2C)C1=O)=NOCc1ccccc1F (stereo not shown) [1-026]	0 (Herbicidal ratio of 5% or lower (almost no effect))	0 (Herbicidal ratio of 5% or lower (almost no effect))	0 (Herbicidal ratio of 5% or lower (almost no effect))	5 (Herbicidal ratio of 90% or more (almost completely withered))	5 (Herbicidal ratio of 90% or more (almost completely withered))	3 (Herbicidal ratio of 40% or higher and lower than 70%)	5 (Herbicidal ratio of 90% or more (almost completely withered))	2 (Herbicidal ratio of 20% or higher and lower than 40%)	3 (Herbicidal ratio of 40% or higher and lower than 70%)	1 (Herbicidal ratio of 5% or higher and lower than 20%)		5 (Herbicidal ratio of 90% or more (almost completely withered))				
